Laboratory results published in patent publication US6034056A, “Fibronectin adhesion inhibitors” (Zeneca Limited, priority 1994, dated 2000).
Where a SMILES comes first, the peptide text is derived from it. [ ]: non-standard residue; d: D form. βAla = NCCC(=O)O

What was measured:
αvβ3 = αvβ3 (Homo sapiens, UniProt P05106+P06756); conditions: cited from earlier work
Jurkat cell = conditions: read-out: IC50, blocking Jurkat cell adhesion to CS-1 coated plates; cited from earlier work
Jurkat cells = conditions: cited from earlier work
αIIbβIIIa = αIIbβIIIa (Homo sapiens, UniProt P05106+P08514); conditions: cited from earlier work
[1] = biological tests (not specified); conditions: at 200 μM
[2] = system: 120 kDa chymotryptic fragment of fibronectin; conditions: cited from earlier work
leukocyte cell = conditions: cited from earlier work

Sequence of αvβ3 (P06756 31-889 limits assumed): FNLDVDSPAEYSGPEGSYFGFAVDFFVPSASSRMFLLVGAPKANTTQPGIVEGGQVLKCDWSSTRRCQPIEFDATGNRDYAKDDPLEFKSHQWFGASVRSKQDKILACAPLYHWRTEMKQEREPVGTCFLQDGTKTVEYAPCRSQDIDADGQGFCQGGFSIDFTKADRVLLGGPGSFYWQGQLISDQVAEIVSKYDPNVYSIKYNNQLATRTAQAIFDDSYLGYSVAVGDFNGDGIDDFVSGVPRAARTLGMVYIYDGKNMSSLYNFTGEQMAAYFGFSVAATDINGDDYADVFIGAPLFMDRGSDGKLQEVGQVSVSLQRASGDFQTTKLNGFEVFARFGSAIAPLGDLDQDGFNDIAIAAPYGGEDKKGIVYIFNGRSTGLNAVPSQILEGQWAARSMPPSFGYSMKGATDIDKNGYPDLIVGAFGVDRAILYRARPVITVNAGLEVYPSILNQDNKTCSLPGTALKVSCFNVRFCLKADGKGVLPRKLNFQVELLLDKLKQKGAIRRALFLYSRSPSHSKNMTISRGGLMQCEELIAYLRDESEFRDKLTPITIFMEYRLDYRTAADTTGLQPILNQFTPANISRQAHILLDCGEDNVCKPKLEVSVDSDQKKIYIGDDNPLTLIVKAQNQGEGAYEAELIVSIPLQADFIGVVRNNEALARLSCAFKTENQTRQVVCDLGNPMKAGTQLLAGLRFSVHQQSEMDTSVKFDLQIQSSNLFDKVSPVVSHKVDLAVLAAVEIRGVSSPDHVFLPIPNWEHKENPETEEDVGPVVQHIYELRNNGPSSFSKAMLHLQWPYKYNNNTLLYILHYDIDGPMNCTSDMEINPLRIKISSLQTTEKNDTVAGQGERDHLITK
Sequence of αvβ3 (P06756 891-1048 partner limits assumed): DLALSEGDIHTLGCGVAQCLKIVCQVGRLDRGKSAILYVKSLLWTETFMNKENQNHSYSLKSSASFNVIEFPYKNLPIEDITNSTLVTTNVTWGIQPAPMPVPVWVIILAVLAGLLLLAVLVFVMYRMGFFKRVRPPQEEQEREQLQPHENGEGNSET
Sequence of αvβ3 (P05106 27-788): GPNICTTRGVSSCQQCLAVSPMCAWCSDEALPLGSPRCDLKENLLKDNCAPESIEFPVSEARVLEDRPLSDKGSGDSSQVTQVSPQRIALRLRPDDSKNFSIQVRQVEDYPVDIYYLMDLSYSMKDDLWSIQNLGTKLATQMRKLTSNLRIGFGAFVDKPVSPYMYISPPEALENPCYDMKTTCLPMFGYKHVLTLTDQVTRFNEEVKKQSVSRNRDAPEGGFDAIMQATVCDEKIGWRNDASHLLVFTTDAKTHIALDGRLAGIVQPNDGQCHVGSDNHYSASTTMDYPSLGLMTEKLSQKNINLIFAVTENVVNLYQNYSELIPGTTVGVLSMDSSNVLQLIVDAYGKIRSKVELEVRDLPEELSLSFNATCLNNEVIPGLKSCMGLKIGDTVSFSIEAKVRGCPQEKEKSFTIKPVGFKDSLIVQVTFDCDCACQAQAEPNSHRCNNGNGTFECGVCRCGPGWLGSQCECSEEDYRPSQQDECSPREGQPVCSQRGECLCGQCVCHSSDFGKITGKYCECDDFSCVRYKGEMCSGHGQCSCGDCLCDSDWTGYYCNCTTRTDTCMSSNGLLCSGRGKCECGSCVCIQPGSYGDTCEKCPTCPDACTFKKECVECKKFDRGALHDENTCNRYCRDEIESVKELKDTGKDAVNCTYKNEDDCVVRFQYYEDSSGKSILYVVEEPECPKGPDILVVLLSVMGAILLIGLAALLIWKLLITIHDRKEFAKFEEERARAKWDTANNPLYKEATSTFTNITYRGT
Sequence of αIIbβIIIa (P08514 32-887 limits assumed): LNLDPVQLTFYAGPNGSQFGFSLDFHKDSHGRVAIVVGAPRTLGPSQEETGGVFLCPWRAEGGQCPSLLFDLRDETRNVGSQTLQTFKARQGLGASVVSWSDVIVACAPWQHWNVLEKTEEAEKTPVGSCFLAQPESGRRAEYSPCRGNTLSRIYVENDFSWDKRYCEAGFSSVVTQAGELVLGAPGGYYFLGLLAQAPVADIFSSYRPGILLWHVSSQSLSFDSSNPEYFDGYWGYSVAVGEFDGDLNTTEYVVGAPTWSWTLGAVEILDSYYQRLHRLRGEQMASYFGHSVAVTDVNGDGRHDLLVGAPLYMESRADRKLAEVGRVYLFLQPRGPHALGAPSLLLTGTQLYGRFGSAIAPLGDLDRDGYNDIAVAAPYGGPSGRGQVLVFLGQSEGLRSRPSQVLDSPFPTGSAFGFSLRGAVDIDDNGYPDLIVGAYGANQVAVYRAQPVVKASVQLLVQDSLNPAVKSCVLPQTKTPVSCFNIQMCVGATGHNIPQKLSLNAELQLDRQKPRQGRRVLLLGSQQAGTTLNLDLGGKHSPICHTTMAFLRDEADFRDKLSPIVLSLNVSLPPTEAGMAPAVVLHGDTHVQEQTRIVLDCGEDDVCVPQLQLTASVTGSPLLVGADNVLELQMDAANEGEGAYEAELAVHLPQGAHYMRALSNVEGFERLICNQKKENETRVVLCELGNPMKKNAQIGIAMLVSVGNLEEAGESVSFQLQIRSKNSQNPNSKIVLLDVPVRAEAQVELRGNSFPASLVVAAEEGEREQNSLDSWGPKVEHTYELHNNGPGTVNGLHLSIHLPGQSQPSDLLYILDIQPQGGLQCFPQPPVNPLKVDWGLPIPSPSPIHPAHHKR
Sequence of αIIbβIIIa (P08514 891-1039 partner limits assumed): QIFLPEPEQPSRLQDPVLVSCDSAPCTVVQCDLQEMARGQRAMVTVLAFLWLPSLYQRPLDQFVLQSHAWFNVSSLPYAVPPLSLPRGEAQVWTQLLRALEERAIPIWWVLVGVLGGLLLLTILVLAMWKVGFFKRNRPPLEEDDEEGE
Sequence of αIIbβIIIa (P05106 27-788): as the sequence (P05106 27-788) above

1-adamantaneacetyl-Cys-Gly-Arg-Gly-Asp-Ser-Pro-Cys
inhibition of function in αvβ3-dependent assay (αvβ3): inhibited function | IC50 (Jurkat cell): 30 µM | inhibition of Jurkat cell binding to fibronectin coated plates (Jurkat cells): inhibited the binding | inhibition of function in αIIbβIIIa-dependent assay (αIIbβIIIa): inhibited function

CC[C@H](C)[C@@H]1NC(=O)CCNC(=O)[C@H](C(C)C)NC(=O)[C@H](CC(=O)O)NC(=O)[C@H](CC(C)C)NC1=O (cyclo(DV[βAla]IL))
activity in biological tests [1]: inactive

Arg-Cys-Asp-thioproline-Cys
inhibition of binding to 120 kDa fibronectin fragment [2]: inhibited the binding | inhibition of leukocyte cell adhesion to fibronectin (leukocyte cell): inhibitor of leukocyte cell adhesion to fibronectin

Cys-Leu-His-Gly-Pro-Glu-Ile-Ieu-Asp-Val-Pro-Ser-Thr
IC50 (Jurkat cell): 30 µM
